Data from patent US20180000768A1, “INTESTINAL FXR AGONISM ENHANCES GLP-1 SIGNALING TO RESTORE PANCREATIC BETA CELL FUNCTIONS” (Salk Institute for Biological Studies, priority 2015, published 2018).
Entries after “also recorded” stand apart in the source; their conditions may differ.

Assays:
[1] = test system: Leptin-deficient ob/ob mice; assay: metabolic phenotype and glucose homeostasis of treated ob/ob mice; assay type: in vivo, mouse; details: Fex 100 mg/kg/day, reduced treatment duration (2 weeks)
[2] = in vitro permeability in Caco2 cells; details: human; for Papp A→B at 2 h, 10 μM: Caco2 cells, assay conc. 10 μM
[3] = test system: human intestinal epithelial Caco2 cells; assay: in vitro permeability in Caco2 cells; details: Caco2 cells, 2 hour incubation
ob/ob mice [4] = assay: in vivo GLP-1 secretion after glucose load; set-up: species or system mouse; details: Fex-treated ob/ob mice, sitagliptin (25 mg/kg) prior to glucose challenge
Procedure: In vitro GLP-1 secretion assay was performed in human enteroendocrinal L cells (NCI-H716). For each secretion assay, cells were seeded at 1×10^5 cells/ml (1 ml/well) in a matrigel-coated 24-well plate. Prior to GLP-1 secretion assay, cells were pre-treated with DMSO, 1 μM Fex, or 1 μM Fex-D overnight. Cells were deprived in Krebs buffer (with 0.1% BSA) with dipeptidyl peptidase (DPP)-4 inhibitor ([…] sitagliptin). GLP-1 was measured with a commercial kit (EZGLP1T-36K, Millipore). For in vivo GLP-1 secretion, each animal was gavaged with 25 mg per kg of body weight sitagliptin 60-minutes before glucose load. Blood was collected from the tail vein at the indicated intervals, and transferred to serum collection tubes containing sitagliptin.
To investigate whether Fex enhances GLP-1 secretion in vivo, mice were challenged with a DPP4 inhibitor, sitagliptin (25 mg/kg) prior to a glucose challenge.

ob/ob mice [5] = assay: gene expression (RNA-Seq, QPCR) in tissues of treated ob/ob mice; assay type: in vivo, mouse
Procedure: Total RNA was isolated from cell pellets treated with RNAlater using the RNA mini kit (Qiagen) and treated with DNaseI (Qiagen) for 30 minutes at room temperature. Sequencing libraries were prepared from 100-500 ng total RNA using the TruSeq RNA Sample Preparation Kit v2 (Illumina) according to the manufacturer's protocol. Briefly, mRNA was purified, fragmented, and used for first-, then second-strand cDNA synthesis followed by adenylation of 3′ ends. Samples were ligated to unique adapters and subjected to PCR amplification. Mulitplexed libraries were then validated using the 2100 BioAnalyzer (Agilent), normalized, and pooled for sequencing. RNA-Seq libraries prepared from two biological replicates for each experimental condition were sequenced on the Illumina HiSeq 2500 using bar-coded multiplexing and a 100 bp read length.
Image analysis and base calling were performed with Illumina CASAVA-1.8.2. This yielded a median of 29.9M usable reads per sample. Short read sequences were mapped to a UCSC mm9 reference sequence using the RNA-seq aligner STAR. Known splice junctions from mm9 were supplied to the aligner and de novo junction discovery was also permitted. Differential gene expression analysis, statistical testing and annotation were performed using Cuffdiff 2. Transcript expression was calculated as gene-level relative abundance in fragments per kilobase of exon model per million mapped fragments and employed correction for transcript abundance bias. RNA-Seq results for genes of interest were also explored visually using the UCSC Genome Browser.

isolated islets = assay: gene expression after direct ex vivo treatment of isolated islets; assay type: cell-based, mouse; details: 24 hours ex vivo, XL335 1 μM, Fex 1 μM
Procedure: Leptin-deficient ob/ob mice were treated daily with vehicle, Fex, or the analogue Fex-D (50 mg/kg) via P.O. for 14 days (A) Chemical structures of fexaramine and Fex-D (B) Schematic of the experimental design (C) Serum glucose levels (D) Glucose tolerance test (E) Insulin secretion in vivo (F) GLP-1 secretion in vivo (G) Heatmap showing hierarchal clustering of gene expression changes in islet induced by Fex (100 mg/kg, 4 wks) and FexD (50 mg/kg, 2 weeks) treatment in ob/ob mice (in vivo); by treatment of islets with XL335 (1 μM), Fex (1 μM), mFgf15 and hFgf19 (24 hours ex vivo); and mFgf15 (0.15 mg/kg, 2 weeks) and INT777 (Tgr5, 60 mg/kg, 4 weeks) treatment of ob/ob mice (in vivo). Gene expression was measured by RNA-Seq and changes are expressed as Z-score. (H) Ven diagram of changes in gene expression in pancreatic islets induced by FEX (100 mg/kg for 5 weeks) and FEX-D (50 mg/kg for 14 days). […] Data represent the mean±STD. Statistical analysis was performed with the Student's t test. *p<0.05, **p<0.01.
Next, primary islets were isolated from mice treated by Fex-D to compare gene expression changes.

ob/ob mice [6] = assay: in vivo glucose-stimulated insulin secretion (GSIS); set-up: species or system mouse; details: Fex 100 mg/kg daily P.O., 5 weeks
Procedure: Insulin resistance can be associated with reduced […] insulin secretion in response to glucose, while GLP-1 augments glucose-stimulated insulin secretion (GSIS). To examine whether Fex treatment improves GSIS, serum insulin levels were determined after a glucose challenge in ob/ob mice.

With `COC(=O)/C=C/c1cccc(N(Cc2ccc(-c3ccc(N(C)C)cc3)cc2)C(=O)C2CCCCC2)c1` [Fexaramine] the fasting glucose levels [1] was “little effect”, the Papp B→A at 2 h, 10 μM ([2]; Caco-2) was 0.77 ×10⁻⁶ cm/s and the recovery at 2 h, 10 μM ([2]; Caco-2) was 150%. For the same compound, the Papp A→B at 2 h, 10 μM ([2]; Caco-2, A-B Permeability Ranking) was less than 1 ×10⁻⁶ cm/s, the Papp A→B at 2 h, 10 μM ([2]; Caco-2, Mean Papp, A-B, 2 hour incubation) was 0.597 ×10⁻⁶ cm/s and the in vitro permeability [3] was “low”. The “glucose tolerance after DPP4 inhibitor pre-treatment” value (ob/ob mice [4]) was “improved”, the “plasma GLP-1 level 20 minutes after the glucose challenge” value (ob/ob mice [4]) was “increase” and the “FXR target genes SHP and FGF15 in the intestine” value (ob/ob mice [5]; Fex 100 mg/kg daily P.O., 5 weeks, ileum) was “markedly upregulated”. For the same compound, the “expression of the GLP-1 receptor in islets” value (ob/ob mice [5]; Fex 100 mg/kg for 5 weeks, listed as Fex) was “increased expression; also recorded: significantly increased”, the “transcriptional changes seen in islets in vivo with Fex and Fex-D” value (isolated islets) was “not observed” and the “serum insulin after a glucose challenge” value (ob/ob mice [6]) was “significant increase”.
